Experimental data: US5358945A, “Pyrimidine compound and pharmaceutically acceptable salts thereof” (Mitsui Petrochemical Industries, Ltd., priority 1990, dated 1994)

Columns and labels:
[1] = test system: Mouse neuro 2a cells; experiment: Neurite outgrowth of mouse neuroblastoma neuro 2a cells (Table 7); assay type: cell-based; settings: mean ± S.D.
Experimental: The biological activities in vitro of the compounds of formula (I) on cells of the nervous system were tested. The cells tested were mouse neuroblastoma cell line neuro-2a (Dainippon Pharmaceutical Co., Ltd.) which have been established as the cells of the nervous system. The above nerve cells were grown in an incubator at 37° C. in the presence of 5% carbon dioxide gas exponentially, and the cultured for a certain period of time together with the compounds of formula (I).
The effects of the compounds of this invention on neuroblastoma cells were examined by the following method.
Mouse neuro 2a cells in the logarithmic growth period in the Dulbecco's modified Eagle's medium [DMEM, containing 100 units/ml of penicillin G sodium and 100 micrograms/ml of streptomycin sulfate] containing 10% of FCS were seeded in a 48-well plate so that the number of cells was 1,000 cells/well, and cultured for one day in 0.25 ml of the culture fluid in each well in an incubator containing 5% of carbon dioxide gas in air at 37° C. The medium was replaced by a medium containing each antibiotics and FCS and the cells were further cultured for 24 hours. Then, a 4% aqueous glutaraldehyde solution in the same amount as a medium (0.25 ml) was added, and the culture was left to stand at room temperature for 2 hours to fix the cells. After washing with water, a 0.05% aqueous solution of methylene blue was added to stain the cells. Under a microscope, the number of cells containing outgrown neurites (cells having at least one neurite with a length of at least two times as large as the long diameter of the cell) was counted visually, and the proportion of these cells in the entire cells was calculated. The well was observed over 5 or more visual fields (at least 2% of the entire surface area of the well) continuous to the left and right from a mark put at the center of the well, and more than 200 cells was counted. One drug compound was used in 6 different concentrations at most, and three runs were conducted for each concentration.

[2] = test system: Mouse neuroblastoma cells NS-20Y; experiment: Neurite appearance in mouse neuroblastoma NS-20Y cells (Table 8); assay type: cell-based;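 also: cells grown in polyornithine-coated dishes, with timing counted from the start of culture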
[3] = test system: mouse; experiment: Acute toxicity in mouse (Table 10); assay type: in vivo
Experimental: The acute toxicity of the compounds of the invention was examined by the following method.
Male ddy-strain 5-week old mice, 4-6 per group, were used as experimental animals. Each of the compounds was dissolved or suspended in saline and administered perorally (p.o.) or intraperitoneally (i.p.), and the toxicity of the compound was assessed 24 hours after the administration.

[4] = i.p., 24 hours after administration

| SMILES | Ratio of the number of cells having neurites with a length of at least two times as large as the diameter of cells to the total number of cells ([1]; 0.1 mM) [%] | The number of cells in which neurites appeared/Total number of cells ([2]; 24 hour, 0.2 mM) | Estimated LD50 [3, 4] [mg/kg] | Ratio of the number of cells having neurites with a length of at least two times as large as the diameter of cells to the total number of cells ([1]; 0.3 mM) [%] | The number of cells in which neurites appeared/Total number of cells ([2]; 48 hour, 0.1 mM) | Estimated LD50 ([3]; in vivo, ip) [mg/kg] | also measured |
| --- | --- | --- | --- | --- | --- | --- | --- |
| CN(C(=O)c1ccccc1)c1ccnc(N2CCc3ccccc32)n1 [Compound 104] | 5.2 ± 2.9 | 3/50 | > 1000 | – | – | – | Ratio of the number of cells having neurites with a length of at least two times as large as the diameter of cells to the total number of cells ([1]; 0.03 mM): 3.4 ± 1.0%; The number of cells in which neurites appeared/Total number of cells ([2]; 24 hour, 0.5 mM): 4/50; The number of cells in which neurites appeared/Total number of cells ([2]; 48 hour, 0.2 mM): 4/50; The number of cells in which neurites appeared/Total number of cells ([2]; 48 hour, 0.5 mM): 3/50 |
| CN(C(=O)c1ccc(C(F)(F)F)cc1)c1ccnc(N2CCC(c3ccccc3)CC2)n1.Cc1ccc(S(=O)(=O)O)cc1 [Compound 112, 4-(N-methyl-4-trifluoromethylbenzoylamino)-2-(4-phenylpiperidino) pyrimidine p-toluenesulfonate] | 43.3 ± 1.8 | – | > 1000 | 21.6 ± 3.3 | 2/50 | – | Ratio of the number of cells having neurites with a length of at least two times as large as the diameter of cells to the total number of cells ([1]; 0.03 mM): 5.9 ± 0.9%; Ratio of the number of cells having neurites with a length of at least two times as large as the diameter of cells to the total number of cells ([1]; 1 mM): 10.0 ± 3.8%; The number of cells in which neurites appeared/Total number of cells ([2]; 24 hour, 0.1 mM): 3/50 |
| COC(=O)c1ccc(C(=O)N(C)c2ccnc(N3CCC(c4ccccc4)CC3)n2)cc1 [Compound 120] | 8.6 ± 5.5 | 3/50 | – | – | – | > 1000 | Ratio of the number of cells having neurites with a length of at least two times as large as the diameter of cells to the total number of cells ([1]; 0.03 mM): 12.6 ± 1.6%; The number of cells in which neurites appeared/Total number of cells ([2]; 48 hour, 0.2 mM): 3/50 |
| CN(C(=O)c1ccc(C#N)cc1)c1ccnc(N2CCC(c3ccccc3)CC2)n1 [Compound 128] | 4.3 ± 1.6 | – | > 1000 | 4.8 ± 1.2 | 4/50 | – | The number of cells in which neurites appeared/Total number of cells ([2]; 24 hour, 0.5 mM): 3/50 |
| CN(C(=O)c1ccc(S(=O)(=O)F)cc1)c1ccnc(N2CCC(c3ccccc3)CC2)n1 [Compound 136] | 5.4 ± 1.7 | – | > 1000 | 10.3 ± 0.2 | – | – | Ratio of the number of cells having neurites with a length of at least two times as large as the diameter of cells to the total number of cells ([1]; 0.03 mM): 5.2 ± 1.8%; Ratio of the number of cells having neurites with a length of at least two times as large as the diameter of cells to the total number of cells ([1]; 1 mM): 11.8 ± 1.4%; The number of cells in which neurites appeared/Total number of cells ([2]; 24 hour, 0.5 mM): 4/50; The number of cells in which neurites appeared/Total number of cells ([2]; 48 hour, 0.2 mM): 3/50 |
| CN(C(=O)c1ccc2ccccc2c1)c1ccnc(N2CCC(c3ccccc3)CC2)n1 [Compound 144] | 4.2 ± 0.6 | – | – | – | 4/50 | – | Ratio of the number of cells having neurites with a length of at least two times as large as the diameter of cells to the total number of cells ([1]; 0.01 mM): 5.1 ± 0.9%; The number of cells in which neurites appeared/Total number of cells ([2]; 24 hour, 0.5 mM): 3/50 |
| CN(C(=O)c1ccc(C=O)cc1)c1ccnc(N2CCC(c3ccccc3)CC2)n1 [Compound 152] | – | – | – | – | 3/50 | > 1000 | Ratio of the number of cells having neurites with a length of at least two times as large as the diameter of cells to the total number of cells ([1]; 0.01 mM): 5.2 ± 0.4%; Ratio of the number of cells having neurites with a length of at least two times as large as the diameter of cells to the total number of cells ([1]; 0.03 mM): 16.5 ± 1.8%; The number of cells in which neurites appeared/Total number of cells ([2]; 24 hour, 0.1 mM): 2/50 |
| CN(C(=O)C12CC3CC(CC(C3)C1)C2)c1ccnc(N2CCC(c3ccccc3)CC2)n1 [Compound 160] | 11.4 ± 1.3 | 2/50 | – | 23.5 ± 2.9 | 3/50 | 500 to 1000 | Ratio of the number of cells having neurites with a length of at least two times as large as the diameter of cells to the total number of cells ([1]; 0.03 mM): 5.1 ± 1.2%; Ratio of the number of cells having neurites with a length of at least two times as large as the diameter of cells to the total number of cells ([1]; 1 mM): 20.7 ± 2.7% |
| CN(C(=O)c1ccc2c(c1)C(=O)OC2=O)c1ccnc(N2CCC(c3ccccc3)CC2)n1 [Compound 168] | – | 3/50 | – | 8.7 ± 2.0 | – | > 1000 | Ratio of the number of cells having neurites with a length of at least two times as large as the diameter of cells to the total number of cells ([1]; 1 mM): 14.6 ± 3.7%; The number of cells in which neurites appeared/Total number of cells ([2]; 48 hour, 0.5 mM): 3/50 |
| CN(C(=O)c1ccccc1)c1ccnc(N2Cc3ccccc3C2)n1 [Compound 184] | 0.9 ± 0.8 | – | – | – | 3/50 | – | Ratio of the number of cells having neurites with a length of at least two times as large as the diameter of cells to the total number of cells ([1]; 0.01 mM): 0.5 ± 0.8%; The number of cells in which neurites appeared/Total number of cells ([2]; 24 hour, 0.1 mM): 2/50 |
| O=CN1CCN(c2ccnc(N3CCCCC3)n2)CC1 [Compound 223] | – | – | > 1000 | – | – | – | – |
| O=C(O)/C=C\C(=O)O.O=CN1CCN(c2ccnc(N3CCCCC3)n2)CC1 [Compound 224, 4-(N-formylpiperazino)-2-piperidino pyrimidine maleate] | 8.9 ± 1.5 | – | – | 21.4 ± 3.3 | 3/50 | – | The number of cells in which neurites appeared/Total number of cells ([2]; 24 hour, 0.1 mM): 2/50 |
| O=C(c1ccccc1)N1CCN(c2ccnc(N3CCCCC3)n2)CC1 [Compound 232] | – | 3/50 | – | – | 4/50 | > 1000 | – |
| CC(=O)N1CCN(c2ccnc(N3CCCCC3)n2)CC1 [Compound 240] | – | – | – | – | – | > 1000 | The number of cells in which neurites appeared/Total number of cells ([2]; 24 hour, 0.1 mM): 3/50; The number of cells in which neurites appeared/Total number of cells ([2]; 24 hour, 0.5 mM): 5/50; The number of cells in which neurites appeared/Total number of cells ([2]; 48 hour, 0.2 mM): 5/50; The number of cells in which neurites appeared/Total number of cells ([2]; 48 hour, 0.5 mM): 6/50 |
| O=C(c1ccccc1)N1CCN(c2ccnc(N3CCC(c4ccccc4)CC3)n2)CC1 [Compound 248] | – | 3/50 | > 1000 | – | 3/50 | – | – |
| CC(=O)N1CCN(c2ccnc(N3CCC(c4ccccc4)CC3)n2)CC1 [Compound 256] | – | 3/50 | > 1000 | – | 4/50 | – | The number of cells in which neurites appeared/Total number of cells ([2]; 24 hour, 0.1 mM): 3/50; The number of cells in which neurites appeared/Total number of cells ([2]; 48 hour, 0.2 mM): 3/50 |
| CN(C(=O)c1ccc(O)cc1)c1ccnc(N2CCC(c3ccccc3)CC2)n1 [Compound 264] | – | – | > 1000 | – | – | – | The number of cells in which neurites appeared/Total number of cells ([2]; 24 hour, 0.5 mM): 3/50; The number of cells in which neurites appeared/Total number of cells ([2]; 48 hour, 0.2 mM): 3/50 |
| O=C1CCCN1c1ccnc(N2CCCCC2)n1 [Compound 272] | 10.5 ± 2.5 | – | – | 25.1 ± 2.7 | – | 250 to 500 | Ratio of the number of cells having neurites with a length of at least two times as large as the diameter of cells to the total number of cells ([1]; 0.01 mM): 5.4 ± 0.4%; Ratio of the number of cells having neurites with a length of at least two times as large as the diameter of cells to the total number of cells ([1]; 1 mM): 20.4 ± 4.9% |
| O=C1CCCN1c1ccnc(N2CCC(c3ccccc3)CC2)n1 [Compound 280] | 6.9 ± 1.4 | – | > 1000 | 7.5 ± 1.1 | – | – | Ratio of the number of cells having neurites with a length of at least two times as large as the diameter of cells to the total number of cells ([1]; 0.01 mM): 7.1 ± 1.7%; Ratio of the number of cells having neurites with a length of at least two times as large as the diameter of cells to the total number of cells ([1]; 1 mM): 8.1 ± 6.3% |
| O=C1CCCCN1c1ccnc(N2CCCCC2)n1 [Compound 288] | – | – | > 1000 | – | – | – | – |
| O=C1CCCCN1c1ccnc(N2CCC(c3ccccc3)CC2)n1 [Compound 296] | – | – | > 1000 | – | – | – | – |
